The kinase profiling compilation of Christmann-Franck et al. (2016)
Blank lines part the entries; values can stand above or below the compound they belong to.

Assays:
Test in all cases: radiometric filter-binding kinase assay
DYRK3 (human) = DYRK3 (human) (UniProt O43781)
CSNK1D (human) = CSNK1D (human) (UniProt P48730)
TBK1 (human) = TBK1 (human) (UniProt Q9UHD2)
MAPK8 (human) = MAPK8 (human) (UniProt P45983)
IKBKE (human) = IKBKE (human) (UniProt Q14164)
NEK6 (human) = NEK6 (human) (UniProt Q9HC98)
TTK (human) = TTK (human) (UniProt P33981)
MAPK3 (human) = MAPK3 (human) (UniProt P27361)
CaMK1 (human) = CaMK1 (human) (UniProt Q14012)
[1] = test system: AKT1 (human), P31749 [S473D]
MARK3 (human) = MARK3 (human) (UniProt P27448)
NUAK1 (human) = NUAK1 (human) (UniProt O60285)
DYRK1A (human) = DYRK1A (human) (UniProt Q13627)
MAPKAPK2 (human) = MAPKAPK2 (human) (UniProt P49137)
MKNK1 (human) = MKNK1 (human) (UniProt Q9BUB5)
MARK2 (human) = MARK2 (human) (UniProt Q7KZI7)
MKNK2 (human) = MKNK2 (human) (UniProt Q9HBH9)
MAPK9 (human) = MAPK9 (human) (UniProt P45984)
STK3 (human) = STK3 (human) (UniProt Q13188)
CHEK2 (human) = CHEK2 (human) (UniProt O96017)
[2] = test system: RPS6KB1 (human), P23443 [T412E]
RPS6KA1 KD1 KD2 (human) = RPS6KA1 KD1 KD2 (human) (UniProt Q15418)
IKBKB (human) = IKBKB (human) (UniProt O14920)
IRAK4 (human) = IRAK4 (human) (UniProt Q9NWZ3)
NEK2 (human) = NEK2 (human) (UniProt P51955)
PAK4 (human) = PAK4 (human) (UniProt O96013)
PIM1 (human) = PIM1 (human) (UniProt P11309)
[3] = molecular target: STK11 CAB39 STRADA (human) (UniProt Q9Y376+Q7RTN6+Q15831)
MAPK14 (human) = MAPK14 (human) (UniProt Q16539)
MAP3K11 (human) = MAP3K11 (human) (UniProt Q16584)
MAP2K1 (human) = MAP2K1 (human) (UniProt Q02750)

AKT1 (human), P31749 [S473D], sequence (P31749 whole entry S473D, looked up): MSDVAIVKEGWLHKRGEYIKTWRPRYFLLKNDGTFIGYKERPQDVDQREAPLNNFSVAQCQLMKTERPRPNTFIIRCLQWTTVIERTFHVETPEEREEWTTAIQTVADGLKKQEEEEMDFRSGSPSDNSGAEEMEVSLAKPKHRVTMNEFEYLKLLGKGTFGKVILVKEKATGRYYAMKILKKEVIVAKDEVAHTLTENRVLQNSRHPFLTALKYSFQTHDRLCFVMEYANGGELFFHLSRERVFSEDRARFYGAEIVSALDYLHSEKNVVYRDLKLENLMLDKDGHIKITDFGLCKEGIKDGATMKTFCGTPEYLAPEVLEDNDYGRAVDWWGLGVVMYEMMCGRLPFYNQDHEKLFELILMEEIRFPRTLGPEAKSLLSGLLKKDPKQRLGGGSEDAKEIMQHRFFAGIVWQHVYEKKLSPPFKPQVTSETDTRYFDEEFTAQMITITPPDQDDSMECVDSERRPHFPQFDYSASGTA
MAPK3 (human), sequence (P27361 whole entry, looked up): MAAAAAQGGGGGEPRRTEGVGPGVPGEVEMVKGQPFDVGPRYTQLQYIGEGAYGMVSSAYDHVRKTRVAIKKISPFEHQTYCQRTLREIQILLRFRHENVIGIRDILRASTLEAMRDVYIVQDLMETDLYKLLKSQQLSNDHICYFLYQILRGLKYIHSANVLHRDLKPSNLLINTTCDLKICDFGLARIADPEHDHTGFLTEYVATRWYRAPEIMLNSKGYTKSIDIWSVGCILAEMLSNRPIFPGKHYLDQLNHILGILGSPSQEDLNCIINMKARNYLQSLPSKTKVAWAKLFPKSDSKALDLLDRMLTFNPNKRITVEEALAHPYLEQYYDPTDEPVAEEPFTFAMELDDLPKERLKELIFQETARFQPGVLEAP
RPS6KA1 KD1 KD2 (human), sequence (Q15418 whole entry, looked up): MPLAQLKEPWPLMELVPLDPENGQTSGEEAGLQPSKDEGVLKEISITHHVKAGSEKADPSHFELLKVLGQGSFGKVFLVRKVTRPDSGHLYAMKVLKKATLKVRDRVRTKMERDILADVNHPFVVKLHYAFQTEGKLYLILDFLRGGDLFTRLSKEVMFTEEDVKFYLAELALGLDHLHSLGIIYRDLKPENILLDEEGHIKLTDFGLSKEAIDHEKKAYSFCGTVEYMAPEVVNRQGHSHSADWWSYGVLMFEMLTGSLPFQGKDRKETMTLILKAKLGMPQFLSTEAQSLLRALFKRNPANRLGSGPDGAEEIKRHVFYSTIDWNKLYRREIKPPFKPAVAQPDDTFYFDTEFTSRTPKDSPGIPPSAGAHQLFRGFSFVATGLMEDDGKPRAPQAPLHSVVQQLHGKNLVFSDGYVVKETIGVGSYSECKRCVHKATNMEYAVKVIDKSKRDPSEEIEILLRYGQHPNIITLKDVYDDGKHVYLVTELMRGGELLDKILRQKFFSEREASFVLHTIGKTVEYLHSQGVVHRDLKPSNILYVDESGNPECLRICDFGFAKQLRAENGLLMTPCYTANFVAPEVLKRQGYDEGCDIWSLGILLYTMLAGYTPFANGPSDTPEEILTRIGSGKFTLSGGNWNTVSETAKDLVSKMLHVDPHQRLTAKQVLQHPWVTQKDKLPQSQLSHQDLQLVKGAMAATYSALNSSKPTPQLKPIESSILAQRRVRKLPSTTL
IKBKE (human), sequence (Q14164 whole entry, looked up): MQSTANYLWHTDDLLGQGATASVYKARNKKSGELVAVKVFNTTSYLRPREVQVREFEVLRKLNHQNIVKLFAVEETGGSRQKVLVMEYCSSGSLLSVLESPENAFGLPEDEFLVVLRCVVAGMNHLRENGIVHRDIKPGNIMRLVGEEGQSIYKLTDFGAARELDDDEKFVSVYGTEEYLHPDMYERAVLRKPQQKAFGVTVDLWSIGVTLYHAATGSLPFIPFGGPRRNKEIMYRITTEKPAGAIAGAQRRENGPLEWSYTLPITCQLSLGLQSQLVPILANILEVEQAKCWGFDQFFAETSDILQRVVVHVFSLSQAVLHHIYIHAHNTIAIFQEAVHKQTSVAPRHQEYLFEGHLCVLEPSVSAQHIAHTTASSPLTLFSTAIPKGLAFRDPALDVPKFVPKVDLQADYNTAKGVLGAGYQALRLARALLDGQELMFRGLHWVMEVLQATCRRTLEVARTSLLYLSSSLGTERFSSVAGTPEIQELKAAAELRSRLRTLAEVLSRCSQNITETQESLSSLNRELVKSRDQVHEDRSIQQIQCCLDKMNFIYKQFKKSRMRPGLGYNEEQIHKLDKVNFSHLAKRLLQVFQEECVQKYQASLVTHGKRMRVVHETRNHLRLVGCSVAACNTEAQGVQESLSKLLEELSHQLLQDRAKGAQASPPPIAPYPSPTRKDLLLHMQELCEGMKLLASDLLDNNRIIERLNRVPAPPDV
MKNK2 (human), sequence (Q9HBH9 whole entry, looked up): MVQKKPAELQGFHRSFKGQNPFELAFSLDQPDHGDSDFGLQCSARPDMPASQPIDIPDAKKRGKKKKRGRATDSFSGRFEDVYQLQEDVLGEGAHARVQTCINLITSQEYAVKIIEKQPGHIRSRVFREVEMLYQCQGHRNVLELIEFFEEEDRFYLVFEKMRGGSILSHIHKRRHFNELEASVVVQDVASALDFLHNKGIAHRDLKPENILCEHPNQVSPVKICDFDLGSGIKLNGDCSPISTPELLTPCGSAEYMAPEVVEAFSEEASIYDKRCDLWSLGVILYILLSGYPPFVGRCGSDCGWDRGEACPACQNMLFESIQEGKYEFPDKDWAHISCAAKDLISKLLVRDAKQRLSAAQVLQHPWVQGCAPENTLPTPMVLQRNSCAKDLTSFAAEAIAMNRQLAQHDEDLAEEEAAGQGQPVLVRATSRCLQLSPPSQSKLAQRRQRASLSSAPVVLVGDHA
RPS6KB1 (human), P23443 [T412E], sequence (P23443 whole entry T412E, looked up): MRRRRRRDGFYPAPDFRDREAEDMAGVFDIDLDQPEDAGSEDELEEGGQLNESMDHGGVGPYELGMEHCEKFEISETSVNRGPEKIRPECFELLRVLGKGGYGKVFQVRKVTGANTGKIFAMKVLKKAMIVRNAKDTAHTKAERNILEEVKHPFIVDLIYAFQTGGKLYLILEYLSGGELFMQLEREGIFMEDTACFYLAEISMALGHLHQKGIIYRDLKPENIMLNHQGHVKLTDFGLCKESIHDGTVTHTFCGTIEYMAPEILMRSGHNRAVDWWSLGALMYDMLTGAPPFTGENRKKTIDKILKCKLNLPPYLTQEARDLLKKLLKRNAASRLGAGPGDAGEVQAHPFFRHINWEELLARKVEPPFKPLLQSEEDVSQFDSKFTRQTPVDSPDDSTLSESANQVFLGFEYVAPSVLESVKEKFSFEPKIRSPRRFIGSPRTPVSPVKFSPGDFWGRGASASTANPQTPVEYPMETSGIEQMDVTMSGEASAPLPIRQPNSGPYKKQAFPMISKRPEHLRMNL
TBK1 (human), sequence (Q9UHD2 whole entry, looked up): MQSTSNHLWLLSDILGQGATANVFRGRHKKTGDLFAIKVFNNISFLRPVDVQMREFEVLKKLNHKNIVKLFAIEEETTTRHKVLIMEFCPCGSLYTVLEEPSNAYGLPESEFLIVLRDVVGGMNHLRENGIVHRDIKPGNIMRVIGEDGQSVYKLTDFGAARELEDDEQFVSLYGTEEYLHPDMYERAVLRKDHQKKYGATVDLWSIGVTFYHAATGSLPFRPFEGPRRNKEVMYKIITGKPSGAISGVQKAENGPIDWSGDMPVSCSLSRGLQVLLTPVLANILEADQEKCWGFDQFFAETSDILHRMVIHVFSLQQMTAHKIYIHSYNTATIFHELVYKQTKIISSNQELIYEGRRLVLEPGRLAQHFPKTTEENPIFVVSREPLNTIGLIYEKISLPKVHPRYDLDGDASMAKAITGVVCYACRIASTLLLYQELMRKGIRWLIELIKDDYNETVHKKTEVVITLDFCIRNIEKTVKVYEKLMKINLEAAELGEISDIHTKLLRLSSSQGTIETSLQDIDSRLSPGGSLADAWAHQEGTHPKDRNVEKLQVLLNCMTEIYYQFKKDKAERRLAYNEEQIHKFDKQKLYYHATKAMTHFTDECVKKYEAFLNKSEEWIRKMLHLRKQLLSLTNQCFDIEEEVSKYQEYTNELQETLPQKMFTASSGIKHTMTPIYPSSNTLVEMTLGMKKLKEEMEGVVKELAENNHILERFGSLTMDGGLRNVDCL
PAK4 (human), sequence (O96013 whole entry, looked up): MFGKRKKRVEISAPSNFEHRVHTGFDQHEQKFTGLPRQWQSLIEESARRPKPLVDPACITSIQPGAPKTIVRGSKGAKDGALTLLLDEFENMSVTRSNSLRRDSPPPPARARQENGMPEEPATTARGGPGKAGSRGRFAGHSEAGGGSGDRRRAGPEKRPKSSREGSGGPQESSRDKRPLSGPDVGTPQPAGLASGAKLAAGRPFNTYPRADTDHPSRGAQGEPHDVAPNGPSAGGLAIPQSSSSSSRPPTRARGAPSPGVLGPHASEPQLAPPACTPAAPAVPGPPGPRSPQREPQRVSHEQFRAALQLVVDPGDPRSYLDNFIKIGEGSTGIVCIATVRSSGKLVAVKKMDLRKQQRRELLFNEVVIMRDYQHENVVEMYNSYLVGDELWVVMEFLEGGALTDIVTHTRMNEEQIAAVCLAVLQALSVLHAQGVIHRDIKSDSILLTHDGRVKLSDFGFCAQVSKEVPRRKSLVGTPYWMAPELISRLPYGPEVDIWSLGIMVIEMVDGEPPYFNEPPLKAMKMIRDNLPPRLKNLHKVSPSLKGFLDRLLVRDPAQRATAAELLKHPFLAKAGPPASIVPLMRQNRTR
CaMK1 (human), sequence (Q14012 whole entry, looked up): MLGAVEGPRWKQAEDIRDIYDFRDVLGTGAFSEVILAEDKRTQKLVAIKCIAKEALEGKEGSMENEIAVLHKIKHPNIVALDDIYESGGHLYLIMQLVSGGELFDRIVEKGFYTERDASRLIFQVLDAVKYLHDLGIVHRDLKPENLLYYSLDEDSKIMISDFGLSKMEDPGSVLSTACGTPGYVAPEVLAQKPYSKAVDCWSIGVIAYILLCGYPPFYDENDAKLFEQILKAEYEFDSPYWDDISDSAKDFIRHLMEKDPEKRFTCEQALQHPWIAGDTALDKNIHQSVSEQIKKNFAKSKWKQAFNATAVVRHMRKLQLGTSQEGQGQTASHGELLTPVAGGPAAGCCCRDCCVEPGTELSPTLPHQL

residual activity (DYRK3 (human); compound 1.0 µM): 90%
residual activity (DYRK3 (human); compound 10.0 µM): 82%
residual activity (CSNK1D (human); compound 1.0 µM): 94%
residual activity (CSNK1D (human); compound 10.0 µM): 101%
residual activity (TBK1 (human); compound 1.0 µM): 87%
residual activity (TBK1 (human); compound 10.0 µM): 96%
residual activity (MAPK8 (human); compound 1.0 µM): 85%
residual activity (MAPK8 (human); compound 10.0 µM): 79%
residual activity (IKBKE (human); compound 1.0 µM): 90%
residual activity (IKBKE (human); compound 10.0 µM): 86%
residual activity (NEK6 (human); compound 1.0 µM): 89%
residual activity (NEK6 (human); compound 10.0 µM): 119%
residual activity (TTK (human); compound 1.0 µM): 98%
residual activity (TTK (human); compound 10.0 µM): 106%
residual activity (MAPK3 (human); compound 10.0 µM): 93%
residual activity (CaMK1 (human); compound 1.0 µM): 94%
residual activity (CaMK1 (human); compound 10.0 µM): 94%
residual activity ([1]; compound 1.0 µM): 96%
residual activity ([1]; compound 10.0 µM): 91%
residual activity (MARK3 (human); compound 1.0 µM): 94%
residual activity (MARK3 (human); compound 10.0 µM): 98%
residual activity (NUAK1 (human); compound 1.0 µM): 108%
residual activity (NUAK1 (human); compound 10.0 µM): 101%
residual activity (DYRK1A (human); compound 1.0 µM): 81%
residual activity (DYRK1A (human); compound 10.0 µM): 94%
residual activity (MAPKAPK2 (human); compound 1.0 µM): 85%
residual activity (MAPKAPK2 (human); compound 10.0 µM): 96%
residual activity (MKNK1 (human); compound 1.0 µM): 86%
residual activity (MKNK1 (human); compound 10.0 µM): 78%
residual activity (MARK2 (human); compound 1.0 µM): 110%
residual activity (MARK2 (human); compound 10.0 µM): 109%
residual activity (MKNK2 (human); compound 1.0 µM): 106%
residual activity (MKNK2 (human); compound 10.0 µM): 102%
residual activity (MAPK9 (human); compound 1.0 µM): 85%
residual activity (MAPK9 (human); compound 10.0 µM): 88%
residual activity (STK3 (human); compound 1.0 µM): 94%
residual activity (STK3 (human); compound 10.0 µM): 104%
residual activity (CHEK2 (human); compound 1.0 µM): 92%
residual activity (CHEK2 (human); compound 10.0 µM): 86%
residual activity ([2]; compound 1.0 µM): 83%
residual activity ([2]; compound 10.0 µM): 99%
residual activity (RPS6KA1 KD1 KD2 (human); compound 1.0 µM): 80%
residual activity (RPS6KA1 KD1 KD2 (human); compound 10.0 µM): 92%
residual activity (IKBKB (human); compound 1.0 µM): 95%
residual activity (IKBKB (human); compound 10.0 µM): 96%
residual activity (IRAK4 (human); compound 1.0 µM): 109%
residual activity (IRAK4 (human); compound 10.0 µM): 99%
residual activity (NEK2 (human); compound 1.0 µM): 86%
residual activity (NEK2 (human); compound 10.0 µM): 86%
residual activity (PAK4 (human); compound 1.0 µM): 95%
residual activity (PAK4 (human); compound 10.0 µM): 97%
residual activity (PIM1 (human); compound 1.0 µM): 87%
residual activity (PIM1 (human); compound 10.0 µM): 94%
residual activity ([3]; compound 1.0 µM): 111%
residual activity ([3]; compound 10.0 µM): 110%
residual activity (MAPK14 (human); compound 1.0 µM): 97%
residual activity (MAPK14 (human); compound 10.0 µM): 102%
residual activity (MAP3K11 (human); compound 1.0 µM): 109%
residual activity (MAP3K11 (human); compound 10.0 µM): 109%
residual activity (MAP2K1 (human); compound 1.0 µM): 85%
residual activity (MAP2K1 (human); compound 10.0 µM): 109%
SMILES: CN1C(=O)[C@@H](Cc2c[nH]c3ccccc23)NC1=S

SMILES: C[C@H]1CCCC(=O)CCC/C=C/c2cc(O)cc(O)c2C(=O)O1
residual activity (DYRK3 (human); compound 1.0 µM): 100%
residual activity (DYRK3 (human); compound 10.0 µM): 62%
residual activity (CSNK1D (human); compound 1.0 µM): 99%
residual activity (CSNK1D (human); compound 10.0 µM): 83%
residual activity (TBK1 (human); compound 1.0 µM): 82%
residual activity (TBK1 (human); compound 10.0 µM): 80%
residual activity (MAPK8 (human); compound 1.0 µM): 88%
residual activity (MAPK8 (human); compound 10.0 µM): 80%
residual activity (IKBKE (human); compound 1.0 µM): 95%
residual activity (IKBKE (human); compound 10.0 µM): 82%
residual activity (NEK6 (human); compound 1.0 µM): 91%
residual activity (NEK6 (human); compound 10.0 µM): 91%
residual activity (MAPK3 (human); compound 1.0 µM): 113%
residual activity (MAPK3 (human); compound 10.0 µM): 107%
residual activity (CaMK1 (human); compound 1.0 µM): 101%
residual activity (CaMK1 (human); compound 10.0 µM): 75%
residual activity ([1]; compound 10.0 µM): 95%
residual activity (MARK3 (human); compound 1.0 µM): 102%
residual activity (MARK3 (human); compound 10.0 µM): 99%
residual activity (DYRK1A (human); compound 10.0 µM): 32%
residual activity (MAPKAPK2 (human); compound 1.0 µM): 101%
residual activity (MAPKAPK2 (human); compound 10.0 µM): 92%
residual activity (MKNK1 (human); compound 1.0 µM): 89%
residual activity (MKNK1 (human); compound 10.0 µM): 46%
residual activity (MKNK2 (human); compound 1.0 µM): 64%
residual activity (MKNK2 (human); compound 10.0 µM): 23%
residual activity (MAPK9 (human); compound 1.0 µM): 46%
residual activity (MAPK9 (human); compound 10.0 µM): 65%
residual activity (STK3 (human); compound 1.0 µM): 119%
residual activity (STK3 (human); compound 10.0 µM): 113%
residual activity (CHEK2 (human); compound 1.0 µM): 93%
residual activity (CHEK2 (human); compound 10.0 µM): 73%
residual activity ([2]; compound 1.0 µM): 106%
residual activity ([2]; compound 10.0 µM): 61%
residual activity (RPS6KA1 KD1 KD2 (human); compound 1.0 µM): 89%
residual activity (RPS6KA1 KD1 KD2 (human); compound 10.0 µM): 41%
residual activity (IKBKB (human); compound 1.0 µM): 101%
residual activity (IKBKB (human); compound 10.0 µM): 78%
residual activity (NEK2 (human); compound 1.0 µM): 93%
residual activity (NEK2 (human); compound 10.0 µM): 96%
residual activity (PAK4 (human); compound 1.0 µM): 95%
residual activity (PAK4 (human); compound 10.0 µM): 90%
residual activity (PIM1 (human); compound 1.0 µM): 51%
residual activity (PIM1 (human); compound 10.0 µM): 11%
residual activity (MAPK14 (human); compound 1.0 µM): 93%
residual activity (MAPK14 (human); compound 10.0 µM): 85%
residual activity (MAP2K1 (human); compound 1.0 µM): 66%
residual activity (MAP2K1 (human); compound 10.0 µM): 55%
